From patent US5328913A, “Minoxidil analogs as inhibitors of cell proliferation and lysyl hydroxylase” (priority 1992, dated 1994)

Key:
prolyl hydroxylase = assay: Prolyl hydroxylase activity in fibroblasts treated with minoxidil and its hydroxy derivatives (Example 3); format: cell-based, human; settings: 1 mM
Description: (§1) Culture of human skin fibroblasts derived from an apparently normal adult were grown to confluent densities in Dulbecco's modified Eagle's medium supplemented with 10% (v/v) fetal calf serum. Thereafter, the medium was replaced with medium supplemented with 0.5% dialyzed fetal calf serum. The cultures were treated for 72 hr with 1 mM minoxidil, 3'- hydroxyminoxidil,or 4'-hydroxyminoxidil (Upjohn) dissolved in aqueous medium. In some experiments, minoxodil was dissolved in 95% (v/v) ethanol; the final concentration of minoxidil was 0.3 mM and that of ethanol was 0.3%. Cultures treated with ethanol only served as the control.
During the last 3 hr of treatment, cultures received 100 μM ascorbic acid. The enzyme activities in extracts of treated cells were measured by tritium-release assays described previously (Murad and Pinnell, J. Biol. Chem. 262:11,973 (1987)).

lysyl hydroxylase = settings: Murad and Pinnell 1987; cited from earlier work
[1] = in vivo; cited from earlier work
[2] = system: Lysyl Hydroxylations in Human Skin Fibroblasts; assay: Hydroxylation of lysine residues in type I procollagen (Hyl/Lys); format: cell-based; settings: 0.3 M, 72 hr
[3] = system: Lysyl Hydroxylations in Human Skin Fibroblasts; assay: as above; format: cell-based; settings: for Hyl/Lys: 72 hr
Description: as §1, with “[…].” for “the final concentration of minoxidil was 0.3 mM and that of ethanol was 0.3%.”
During the last 6 hr of treatment, cultures were labeled with 50 μCi of L-[2,3-^3 H]proline (35 Ci/mmol) and 50 μCi of L[U-^14 C]lysine ([…]) in 4 ml of lysine-free medium supplemented with 100 μM ascorbic acid. At the end of the incubation period, the medium was removed and mixed with 1 mM each of EDTA, N-ethylmaleimide, and phenylmethylsulfonylfluoride, and the collagenous proteins were precipitated with 30% (NH4)2 SO4. The cell layer was scraped and extracted with 0.5 M acetic acid containing the protease inhibitors as above. The cell extract was neutralized, and the collagenous proteins were precipitated as above. The (NH4)2 SO4 precipitate from the medium and cell layer was separately dissolved in 0.1% SDS/10 mM Tris-HCl (pH 6.8), reduced with dithiothreitol, and analyzed by electrophoresis on 4% SDS-polyacrylamide gels. The bands corresponding to the proαl(I) and proα2(I) chains from the two fractions were pooled and hydrolyzed with 6 M HCl for 24 hr at 110° C. Proline, hydroxyproline, lysine, and hydroxylysine in the hydrolysate were separated by HPLC (Takimitsa et al, J. Dermatol. 16:37 (1989)), and their radioactivity was determined in a Beckman liquid scintillation counter. To isolate type I procollagen the precipitate from the medium and cell layer was separately dissolved in 25 mM Tris-HCl, pH 7.5, containing 2 M urea and 1 mM each of EDTA, N-ethylmaleimide, and phenylmethylsulfonylfluoride, then chromatographed on a DEAE-cellulose column (Freiberger et al, J. Invest. Dermatol. 75:425 (1980)). The procollagen isolated from the two fractions was pooled, hydrolyzed, and analyzed as above.

## Nc1cc(N2CCCCC2)nc(N)[n+]1[O-] [Minoxidil]
Prolyl hydroxylase; 72 hr
  prolyl hydroxylase activity (in words): remained unchanged
Prolyl hydroxylase; 72 hr (Table VI)
  Prolyl Hydroxylase Activity: 29446 cpm ^3 H2 O/mg protein
Prolyl hydroxylase; 72 hr (description table)
  Prolyl Hydroxylase Activity: 29446 cpm^3 H2 O/mg protein
Lysyl hydroxylase
  effect on lysyl hydroxylase in cultured fibroblasts (in words): selectively decreased the activity of lysyl hydroxylase
[1]
  antihypertensive / hypotensive activity (in words): hypotensive activity
[2]; type I procollagen chains isolated by gel electrophoresis, mean ± range (Table IV)
  Hyl/Lys: 0.08 ± 0.02
[2]; type I procollagen isolated by column chromatography (Table IV)
  Hyl/Lys: 0.17
[3]; 1 mM, gel electrophoresis (Table V)
  Hyl/Lys: 0.07 ± 0.02
[3]; 1 mM, type I procollagen chains isolated by gel electrophoresis, mean ± range of two experiments (description table)
  Hyl/Lys: 0.07 ± 0.02
[3]; Homo sapiens, Skin fibroblast, 1 mM, 72 hr (Table V), read-out: ratio of hydroxylysine to lysine, percentage of control value
  activity at 1000 µM: 32%
[3]; procollagen isolated by column chromatography, 4320 min
  ratio of hydroxylysine to lysine, % of control: 50%
[3]; procollagen isolated by gel chromatography (so in the source), 4320 min
  ratio of hydroxylysine to lysine, % of control value: 27%
